Results reported in ChEMBL document CHEMBL1131163 (J Med Chem, 1998).

Biological target: D(2) dopamine receptor (Rattus norvegicus) (UniProt P61169)
Sequence (P61169 whole entry, looked up): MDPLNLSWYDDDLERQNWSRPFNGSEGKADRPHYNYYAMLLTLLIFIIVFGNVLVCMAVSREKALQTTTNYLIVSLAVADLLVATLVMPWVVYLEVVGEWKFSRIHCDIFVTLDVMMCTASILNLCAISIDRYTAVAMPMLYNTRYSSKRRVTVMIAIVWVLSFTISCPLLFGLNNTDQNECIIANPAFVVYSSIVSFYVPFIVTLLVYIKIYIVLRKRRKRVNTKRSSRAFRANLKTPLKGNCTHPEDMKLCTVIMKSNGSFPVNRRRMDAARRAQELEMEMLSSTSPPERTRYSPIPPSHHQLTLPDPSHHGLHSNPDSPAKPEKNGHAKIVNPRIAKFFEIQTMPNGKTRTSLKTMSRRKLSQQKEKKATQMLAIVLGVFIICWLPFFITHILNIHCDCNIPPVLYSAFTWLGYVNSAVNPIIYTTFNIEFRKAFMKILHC

CN1C[C@H](C(N)=O)C=C2c3cccc4[nH]c(Br)c(c34)C[C@H]21
Ki: 2 nM
